Source: patent publication US20260240846A1, “ZAK ALPHA KINASE (MAP3K20) INHIBITORS FOR USE IN THE TREATMENT OF ANEMIA” (UNIVERSIDAD DE MURCIA, priority 2023, published 2026)

What was measured:
K562 cells = test: Erythroid differentiation assay in K562 cells (hemin; hemoglobin accumulation, western blot); assay type: cell-based, human
Experimental: FIG. 1. ZAKα/P38 signaling pathway is activated in K562 after erythroid differentiation and its inhibition facilitates terminal erythroid differentiation. K562 cells were pre-treated with 0.1 μM nilotinib (Nil) (A, C, D), 1 μM anisomycin (B) and/or the indicated concentrations of the […] CX-5461 for 24 h, and then differentiated with 50 μM hemin for another 24 h. Hemoglobin accumulation (A, B, D) and NLRP1, phosphorylated P38, GATA1, ZAKα and ACTB (A-C) amounts were then evaluated by western blot. Immunoblots are representative of 3 independent experiments. #1, ACTB; #2, GATA1.
FIG. 2. The ZAKα/P38 signaling pathways is activated in K562 after erythroid differentiation. K562 cells were pre-treated with 0.1 μM nilotinib for 24 h and then differentiated with 50 μM hemin for the indicated times. The amounts of NLRP1, GATA1, phosphorylated P38, total ZAKα, phosphorylated ZAKα (Phos-tag) and ACTB were then evaluated by western blot.
FIG. 10. Imatinib and dasatinib promote erythropoiesis in human and zebrafish. (A) K562 cells were pretreated with the indicated concentrations of nilotinib, imatinib or dasatinib for 24 h and then differentiated with 50 μM hemin for 24 h. The amounts of NLRP1, GATA1, phosphorylated P38, total ZAKα and ACTB were then evaluated by western blot. (B) Zebrafish larvae were treated from 1 to 2 dpf with the indicated concentrations of nilotinib, imatinib or dasatinib. Representative images and number of neutrophils in larvae of 2 dpf treated by bath immersion with the indicated concentrations of imatinib and dasatinib. Each dot represents one individual and the mean±SEM for each group is also shown. P values were calculated by one-way ANOVA and Tukey's multiple range test. n.s., non-significant. ***P<0.001; ****P<0.0001.
FIG. 11. Ponatinib and bosutinib promote erythropoiesis in human and zebrafish. (A) K562 cells were pretreated with the indicated concentrations of nilotinib, ponatinib and bosutinib for 24 h and then differentiated with 50 μM hemin for the indicated times. The amounts of NLRP1, total ZAKα, GATA1, phosphorylated P38 and ACTB were then evaluated by western blot. (B) Number of neutrophils in larvae of 2 dpf treated by bath immersion with the indicated concentrations of ponatinib and bosutinib. Each dot represents one individual and the mean±SEM for each group is also shown. P values were calculated by one-way ANOVA and Tukey's multiple range test. n.s., non-significant, *P<0.05. **P<0.01. ***P<0.001.
K562 cells (CRL-3343; American Type Culture Collection) were maintained in RPMI culture medium supplemented with 10% fetal calf serum (FCS), 2 mM Glutamine, and 1% penicillin-streptomycin (Life Technologies). Cells were maintained and subcultured before confluence every 72 h. For differentiation, cells were treated with 50 μM hemin (#16009-13-5, Sigma-Aldrich) in the presence of 0.1% DMSO alone or with the caspase-1 inhibitor VX-765 (100 μM), the tyrosine kinase inhibitor nilotinib (0.1 μM), the RNA polymerase I inhibitor CX-5461 (200 nM, 1 μM and 10 μM) (all from MedChemExpress). Cells were collected at different time points (0, 24, 48 hours post-hemin addition), centrifuged, washed twice with PBS, and stored at −80° C. for further analysis.
Cells were lysed in 50 mM Tris-HCl (pH 7.5), 150 mM NaCl, 1% (w/v) NP-40 and fresh protease inhibitor (1/20, #P8340, Sigma-Aldrich). Protein quantification was performed with the BCA kit using BSA as standard. Cell lysates ([…]) in SDS sample buffer were subjected to electrophoresis on a polyacrylamide gel and transferred to nitrocellulose membranes. The membranes were incubated for 1 h with TTBS containing 5% (w/v) skimmed dried milk powder or 2% (w/v) BSA. The membranes were immunoblotted in the same buffer 16 h at 4° C. with the different primary antibodies diluted 1/1000. The blots were then washed with TTBS and incubated for 1 h at room temperature with secondary HRP-conjugated antibodies diluted 2,500-fold in 5% (w/v) skimmed milk in TTBS. […]

HSPCs from DBA patients = test: Colony assay of PBMCs from DBA patients in methylcellulose medium; assay type: cell-based, human; details: 2 weeks, indicated concentrations (FIG. 13A)
Experimental: FIG. 13. […] PBMCs from DBA patients were incubated for 2 weeks in human methylcellulose complete medium at 37° C. in the presence or absence of the indicated concentrations of nilotinib, imatinib, dasatinib, bosutinib and ponatinib, and the number of erythroid (A) and myeloid (B) colonies counted using standard morphological criteria. Each dot represents one patient and the means±SEM for each group is also shown.

[1] = K562 cells, 0.1 μM nilotinib 24 h, then 50 μM hemin, western blot

## Cc1cn(-c2cc(NC(=O)c3ccc(C)c(Nc4nccc(-c5cccnc5)n4)c3)cc(C(F)(F)F)c2)cn1 [nilotinib]
K562 cells; 0.1 μM nilotinib 24 h, with or without 50 μM hemin 24 h (FIG. 1A)
  erythroid differentiation of K562: strongly promoted erythroid differentiation of K562, even in the absence of hemin
K562 cells; K562 cells, 0.1 μM nilotinib 24 h, then 50 μM hemin 24 h
  haemoglobin accumulation: increase in haemoglobin accumulation
K562 cells; K562 cells, 0.1 μM nilotinib 24 h, then 50 μM hemin, Phos-tag western blot
  hemin-induced phosphorylation of ZAKα: strongly reversed
K562 cells; [1]
  hemin-induced degradation of GATA1: strongly reversed
  hemin-induced phosphorylation of P38: strongly reversed
K562 cells; K562 cells, 0.1 μM nilotinib (FIGS. 1A and 2)
  expression of GATA1: increased expression of GATA1
K562 cells; K562 cells, 0.1 μM nilotinib plus CX-5461 24 h, then 50 μM hemin 24 h (FIG. 1C)
  accumulation of GATA1 in the presence of CX-5461: able to promote accumulation of GATA1
K562 cells; K562 cells, basal conditions, upon hemin-induced erythroid differentiation and upon anisomycin
  abundance of ZAK alpha, phosphorylated ZAKα and P38, and NLRP1: Alter the abundance
HSPCs from DBA patients
  defective erythropoiesis of HSPCs from DBA patients (erythroid colonies): alleviated defective erythropoiesis
